The COVID Moonshot data (paper PMC7615835)
Where “and” joins values, the source holds several entries; their conditions need not be identical. Equal entries are not always repeated.

Biological target: SARS-CoV-2 Main Protease (SARS-CoV-2) (UniProt P0DTD1)

Q: `O=C(Cc1cc(Cl)cc(NCc2ccc(F)c(Cl)c2)c1)Nc1cncc2ccccc12` was tested. Which IC50 did it give?
A: 2490 nM

Q: `Cc1ccc(NCc2nnc3n(C)c(=O)c4ccccc4n23)cc1C` was tested. Which IC50 did it give?
A: > 99500 nM

Q: For `CCOC(=O)CCNC(=O)C(c1cccnc1)N(C(=O)c1cocn1)c1ccc(C(C)(C)C)cc1` (stereo unspecified), which IC50 is on record?
A: 2800 nM

Q: With `Cc1ccc(C(Cc2cnn(C)c2)C(=O)Nc2n[nH]c3ccccc23)cc1` (stereo unspecified) as the molecule, how does the IC50 read?
A: > 99500 nM

Q: Which IC50 does the source give for `CC(=O)NC(C)c1cc(Cl)cc(-c2ccc(S(N)(=O)=O)cc2)c1` (stereo unspecified) here?
A: > 99500 nM

Q: How did the IC50 turn out when `O=C(NCc1ccc2c(c1)OCO2)c1nc(S(=O)(=O)Cc2ccccc2)ncc1Cl` was run?
A: 1400 nM

Q: `O=C(Cc1cc(Cl)cc(Nc2ccccc2Cc2ccccc2)c1)Nc1cncc2ccccc12` was tested. Which IC50 did it give?
A: 1970 nM

Q: Which IC50 does the source give for `O=C(c1cc(=O)[nH]c2ccccc12)N1CCN(c2cccc(Cl)c2)CC1` here?
A: 2160 nM

Q: How did the IC50 turn out when `O=C(Cc1cc(Cl)cc(Nc2ccc(Cl)nc2Cl)c1)Nc1cncc2ccccc12` was run?
A: 2310 nM

Q: Which IC50 does the source give for `CC1(CS(=O)(=O)N2Cc3ccc(Cl)cc3C3(CCN(c4cncc5cc(S(C)(=O)=O)ccc45)C3=O)C2)CC1` (stereo unspecified) here?
A: 155 nM

Q: How did the IC50 turn out when `CCCOc1ccc(Nc2cc(Cl)cc(CC(=O)Nc3cncc4ccccc34)c2)cc1` was run?
A: 2920 nM

Q: How did the IC50 turn out when `O=C(Cc1cccc(Cl)c1)NC1C(=O)NCc2ccccc21` (stereo unspecified) was run?
A: > 99500 nM

Q: `COc1ccc2c(NC(=O)C3CN(S(=O)(=O)CC4(C#N)CC4)Cc4ccc(Cl)cc43)cncc2c1` (stereo unspecified) was tested. Which IC50 did it give?
A: 342 nM

Q: Which IC50 does the source give for `COC(=O)/C=C/C(=O)N(C(=O)[C@H]1CCOc2ccc(Cl)cc21)c1cncc2ccccc12` (stereo in doubt) here?
A: 4360 nM

Q: `CN(C)S(=O)(=O)N1CCN(C(=O)C2Nc3ccccc3S(=O)(=O)N2)CC1` (stereo unspecified) was tested. Which IC50 did it give?
A: > 99500 nM

Q: Which IC50 does the source give for `O=C(Cc1cc(Cl)cc(Nc2c(F)cc(Br)cc2F)c1)Nc1cncc2ccccc12` here?
A: 1540 nM

Q: How did the IC50 turn out when `Cc1cc(C(F)(F)F)nc2n[nH]c(NC(=O)C3CCOc4ccc(Cl)cc43)c12` (stereo unspecified) was run?
A: 26000 nM

Q: For `N#CC1(CS(=O)(=O)N2Cc3ccc(Cl)cc3C3(CCN(c4cncc5c4CCCC5)C3=O)C2)CC1` (stereo unspecified), which IC50 is on record?
A: 515 nM

Q: How did the IC50 turn out when `Cn1cc(CN(C(=O)Cn2nnc3ccccc32)c2ccc(N3CCCCC3)cc2)cn1` was run?
A: > 99500 nM

Q: Which IC50 does the source give for `COc1ccc2c(c1)CN(C(=O)CCl)C(c1ccccc1)C2` (stereo unspecified) here?
A: 3740 nM

Q: For `CC(C)(C)c1ccc(N(C(=O)c2ccccc2)C(C(=O)NCCc2cccc(F)c2)c2cccnc2)cc1` (stereo unspecified), which IC50 is on record?
A: > 99500 nM

Q: For `COC(=O)CCSc1cc(Cl)ccc1N(C(=O)c1ccco1)C(C(=O)NCCc1cccc(F)c1)c1cccnc1` (stereo unspecified), which IC50 is on record?
A: 16600 nM

Q: How did the IC50 turn out when `O=C(CN(C(=O)Cn1ccnn1)c1ccc(-c2ccccn2)cc1)N1CCNCC1` was run?
A: > 99500 nM

Q: Which IC50 does the source give for `O=C1CCCN1Cc1cccc(C(=O)N2CCC(C3CCNC3)CC2)c1` (stereo unspecified) here?
A: > 99500 nM

Q: How did the IC50 turn out when `CCc1ccc(S(C)(=O)=O)cc1C(=O)N1CCC(C2CCNC2)CC1` (stereo unspecified) was run?
A: > 99500 nM

Q: How did the IC50 turn out when `O=C(Cc1cc(Cl)cc(NCc2ccc(-c3ccccc3)cc2)c1)Nc1cncc2ccccc12` was run?
A: 1530 nM

Q: For `Cn1nncc1C(=O)N1Cc2ccc(Cl)cc2C(C(=O)Nc2cncc3ccccc23)C1` (stereo unspecified), which IC50 is on record?
A: 397 nM

Q: How did the IC50 turn out when `CN1CCN(c2ncc(C(C(=O)NCCc3cccc(F)c3)N(C(=O)c3cocn3)c3ccc(C(C)(C)C)cc3)cn2)CC1` (stereo unspecified) was run?
A: > 99500 nM

Q: With `CCCc1cc2c(cc1S(=O)(=O)N1CCN(c3cccc(Cl)c3Cl)CC1)OCO2` as the molecule, how does the IC50 read?
A: > 99500 nM

Q: With `COc1ccc(Nc2cc(Cl)cc(CC(=O)Nc3cncc4ccccc34)c2)c([N+](=O)[O-])c1` as the molecule, how does the IC50 read?
A: 2120 nM

Q: For `CC(=O)N(c1ccc(N)cc1)c1cc(Cl)cc(CC(=O)Nc2cncc3ccccc23)c1`, which IC50 is on record?
A: 2320 nM

Q: `O=C(Cc1cc(Cl)cc(Nc2c(F)c(F)cc(F)c2F)c1)Nc1cncc2ccccc12` was tested. Which IC50 did it give?
A: 2030 nM

Q: With `N#Cc1ccc(CN2CCC(C3CCNC3)CC2)cc1` (stereo unspecified) as the molecule, how does the IC50 read?
A: 2060 nM

Q: With `Cc1ccncc1NC(=O)CC(C)C(C)C` (stereo unspecified) as the molecule, how does the IC50 read?
A: > 99000 nM

Q: Which IC50 does the source give for `Cc1cc(C(=O)CCl)c(C)n1NC(=O)c1n[nH]c(=O)c2ccccc12` here?
A: 6050 nM

Q: With `CN(c1ccc2c(NC(=O)C3CN(S(=O)(=O)CC4(C#N)CC4)Cc4ccc(Cl)cc43)cncc2c1)S(C)(=O)=O` (stereo unspecified) as the molecule, how does the IC50 read?
A: 232 nM

Q: Which IC50 does the source give for `O=C(Cc1cc(Cl)cc(Nc2ccc(Br)c(Cl)c2Cl)c1)Nc1cncc2ccccc12` here?
A: 2410 nM

Q: `O=C(c1cc(=O)[nH]c2ccccc12)N1CCN(c2ccccc2)CC1` was tested. Which IC50 did it give?
A: 27500 nM

Q: `O=C(Nc1cncc2ccccc12)C1CN(C(=O)c2cnco2)Cc2ccc(Cl)cc21` (stereo unspecified) was tested. Which IC50 did it give?
A: 1070 nM

Q: How did the IC50 turn out when `CN(Cc1cccc([N+](=O)[O-])c1)c1cc(Cl)cc(CC(=O)Nc2cncc3ccccc23)c1` was run?
A: 1530 nM

Q: Which IC50 does the source give for `COC1(c2cccc(Cl)c2)CCN(c2cncc3ccccc23)C1=O` (stereo unspecified) here?
A: 467 nM

Q: `O=c1[nH]c(Cc2cccc(S(F)(F)(F)(F)F)c2)nc2cnccc12` was tested. Which IC50 did it give?
A: > 99500 nM

Q: How did the IC50 turn out when `Cc1ccncc1NC(=O)Cc1cc(Cl)cc(OCc2n[nH]c3ccccc23)c1` was run?
A: > 99500 nM

Q: With `O=C(c1cc(=O)cc[nH]1)N1CCN(c2cccc(Cl)c2)CC1` as the molecule, how does the IC50 read?
A: > 99500 nM

Q: `O=C(Cc1cncc2ccccc12)Nc1cccc(Cl)c1` was tested. Which IC50 did it give?
A: 6470 nM

Q: Which IC50 does the source give for `N#CC1(CS(=O)(=O)N2Cc3ccc(Cl)cc3[C@@H](C(=O)Nc3cncc4ccccc34)C2)CCOCC1` (stereo in doubt) here?
A: 15200 nM

Q: Which IC50 does the source give for `O=C(CCl)N1CCN(S(=O)(=O)c2cccc(F)c2)CC1` here?
A: 4100 nM and 5050 nM and 2380 nM

Q: Which IC50 does the source give for `O=C(Cc1cccc(Cl)c1)Nc1cnccc1-c1ccccc1` here?
A: 40900 nM

Q: For `COc1ccc2ncc(NC(=O)Cc3cccc(Cl)c3)n2c1`, which IC50 is on record?
A: 15900 nM

Q: How did the IC50 turn out when `Cc1ccncc1NC(=O)Cc1cc(C#N)cc(OC2CC(=O)N2)c1` (stereo unspecified) was run?
A: 11600 nM

Q: Which IC50 does the source give for `CC(C)(O)c1ccc(N(C(=O)c2cocn2)C(C(=O)NCCc2cccc(F)c2)c2cccnc2)cc1` (stereo unspecified) here?
A: 26500 nM
